The record followed here is patent publication US8415383B2, “Substituted benzamidines as antibacterial agents” (Biota Scientific Management Pty Ltd, priority 2007, dated 2013).

Values after ≈ are worked out from the molar mass of the structure shown.

Test system in one data set: not given
Assay: not given
Details: not given
In the case of `N/C(=N\O)c1c(F)ccc(OCc2nc3cc(Cl)ccc3s2)c1F` [Example 1, 3-[(5-Chloro-1,3-benzothiazol-2-yl)methoxy]-2,6-difluoro-N′-hydroxybenzenecarboximidamide], the melting point lay in the range of 169 to 170 °C.

Another data set relates to Staphylococcus aureus ATCC29213. The data set is described as follows: Minimal Inhibitory Concentration (MIC) testing, broth microdilution or agar dilution (CLSI). The class given is cell-based. As to conditions: Staphylococcus aureus ATCC29213; MIC scored as class; read-out: Staphylococcus aureus MICs Activity. The protocol: Minimal Inhibitory Concentration (MIC) Testing
Compounds of this invention were tested for antimicrobial activity by susceptibility testing in liquid or on solid media. MICs for compounds against each strain were determined by the broth microdilution or agar dilution method according to the guidelines of the Clinical Laboratories and Standards Institute, formerly the National Committee for Clinical Laboratory Standards (Clinical Laboratories and Standards Institute. Methods for Dilution Antimicrobial Susceptibility Tests for Bacteria That Grow Aerobically; Approved Standard—Seventh Edition. Document M7-A7. CLSI, Wayne, Pa., 2006; Clinical Laboratories and Standards Institute.
Activities were scored as ‘A’ if the MIC was less than or equal to 0.125 micrograms/ml, ‘B’ if the MIC was 0.25 to 4 micrograms/ml and ‘C’ if the MIC was greater than 4 micrograms/ml.
On to `N/C(=N\O)c1c(F)ccc(OCc2nc(-c3ccc(Cl)cc3)ns2)c1F` [Example 5, 3-[3-(4-Chlorophenyl)-[1,2,4]thiadiazol-5-ylmethoxy]-2,6-difluoro-N-hydroxybenzamidine], for which the MIC is less than 0.125 µg/mL. `N=C(N)c1c(F)ccc(OCc2nc3cc(Cl)ccc3s2)c1F` [Example 3, 3-[(5-Chloro-1,3-benzothiazol-2-yl)methoxy]-2,6-difluorobenzenecarboximidamide]: the MIC is more than 4 µg/mL.

As to `COc1ncc(-c2csc(COc3ccc(F)c(/C(N)=N/O)c3F)n2)s1` [Example 9, 2,6-difluoro-N′-hydroxy-3-((2′-methoxy-4,5′-bithiazol-2-yl)methoxy) benzimidamide], the MIC was less than 0.125 µg/mL. Same read-out and setting: as for `CC(=O)O/N=C(\N)c1c(F)ccc(OCc2nc(-c3ccc(Cl)cc3)ns2)c1F` [Example 6], the figure is 0.25 to 4 µg/mL (≈ 0.57 to 9.11 µM); as for `N=C(N)c1c(F)ccc(OCc2nc(-c3ccc(Cl)cc3)ns2)c1F` [Example 7, 3-((3-(4-chlorophenyl)-1,2,4-thiadiazol-5-yl)methoxy)-2,6-difluorobenzimidamide], more than 4 µg/mL. On to `CS(=O)(=O)/N=C(\N)c1c(F)ccc(OCc2nc(-c3ccc(Cl)cc3)ns2)c1F` [Example 8], for which the MIC is more than 4 µg/mL.

Regarding `CO/N=C(\N)c1c(F)ccc(OCc2nc3cc(Cl)ccc3s2)c1F` [Example 2, 3-[(5-Chloro-1,3-benzothiazol-2-yl)methoxy]-2,6-difluoro-N′-methoxybenzenecarboximidamide], the MIC lay in the range of 0.25 to 4 µg/mL (≈ 0.651 to 10.4 µM). On the same count and under the same terms, as for `N/C(=N\O)c1c(F)ccc(OCc2nc3cc(Cl)ccc3s2)c1F` [Example 1, 3-[(5-Chloro-1,3-benzothiazol-2-yl)methoxy]-2,6-difluoro-N′-hydroxybenzenecarboximidamide], the figure is more than 4 µg/mL.

Staying with this data set, now noted: Staphylococcus aureus, ATCC29213, read-out: Staphylococcus aureus MICs Activity.
Consider `O=c1[nH]c(-c2c(F)ccc(OCc3nc(-c4ccc(Cl)cc4)no3)c2F)no1` [Example 4, 3-{3-[3-(4-Chloro-phenyl)-[1,2,4]oxadiazol-5-ylmethoxy]-2,6-difluorophenyl}-4H-[1,2,4]oxadiazol-5-one], for which the MIC is more than 4 µg/mL.
